From PubChem BioAssay (NCI)
Values joined by “and” are separate entries in the source; they are usually repeats but may differ in a detail not shown here. Equal entries are not always repeated.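 These data come from cells grown in 96-well plates and exposed to compound for 48 hours at five concentrations. The concentration for 50% growth inhibition is given as GI50. TGI: concentration producing complete growth inhibition.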

Experiments:
Assay in all cases: NCI-60 cell line screen, 48 h
[1] = tested on: HT29 colon
[2] = tested on: OVCAR-3 ovarian
[3] = tested on: SF-295 CNS
[4] = tested on: HCT-15 colon
[5] = tested on: ACHN renal
[6] = tested on: HOP-92 NSCLC
[7] = tested on: HS 578T breast
[8] = tested on: SK-OV-3 ovarian
[9] = tested on: HL-60(TB) leukemia
[10] = tested on: OVCAR-5 ovarian

Compound	GI50 [1]	TGI [1]	GI50 [2]	TGI [2]	GI50 [3]	TGI [3]	GI50 [4]	TGI [4]	GI50 [5]	TGI [5]	GI50 [6]	TGI [6]	GI50 [7]	TGI [7]	GI50 [8]	TGI [8]	GI50 [9]	TGI [9]	GI50 [10]	TGI [10]
COc1cc(/C=C/C(=O)/C=C/c2cc(OC)c3c(c2)OCO3)cc2c1OCO2	2.64 µM	6.7 µM	7.66 µM	> 100 µM	11.3 µM	> 100 µM	4.42 µM	> 100 µM	7.25 µM	> 100 µM	58.5 µM	> 100 µM	95.3 µM	> 100 µM	3.46 µM	48.2 µM	63.4 µM	> 100 µM	> 100 µM	> 100 µM
CNC(=S)Nc1ccc(OC)c2ccccc12	–	> 10 µM	–	6.72 µM	–	5.77 µM	–	> 10 µM	–	> 10 µM	–	> 10 µM	–	> 10 µM	–	> 10 µM	–	> 10 µM	–	> 10 µM
O=C(NCC1CC1)c1ccc(-c2cccc(C(=O)NC3CC3)c2)cc1	> 25 µM	> 25 µM	> 25 µM	> 25 µM	> 25 µM	> 25 µM	> 25 µM	> 25 µM	> 25 µM	> 25 µM	6.66 µM	> 25 µM	> 25 µM	> 25 µM	> 25 µM	> 25 µM	> 25 µM	> 25 µM	> 25 µM	> 25 µM
Nc1ncn([C@@H]2S[C@H](CO)[C@@H](O)[C@@H]2F)c(=O)n1	2.45 µM	> 100 µM	> 74 µM	> 100 µM	17.7 µM	> 100 µM	2.7 µM	> 100 µM	0.297 µM	–	0.623 µM	> 100 µM	> 100 µM	> 100 µM	2.94 µM	> 100 µM	0.571 µM	> 31.5 µM	2.64 µM	> 100 µM
O=S(=O)(/N=c1\scc(-c2ccccc2)n1-c1ccccc1)c1ccc(N2N=C3c4ccccc4CC3C2c2ccc(Cl)cc2)cc1 (stereo not given)	44 µM	> 100 µM	44.3 µM	> 100 µM	40.7 µM	> 100 µM	47.7 µM	> 100 µM	40.1 µM	> 100 µM	38.6 µM	> 100 µM	33 µM	> 100 µM	76.2 µM	> 100 µM	29.6 µM	69 µM	38.1 µM	> 100 µM
COC(=O)C1=C(O)C(C(=O)OC)C2CC(=O)CC1C2(C)C (stereo not given)	–	> 100 µM	–	> 100 µM	–	> 100 µM	–	> 100 µM	–	> 100 µM	–	> 100 µM	–	> 100 µM	–	> 100 µM	–	> 100 µM	–	> 100 µM
CC(=O)c1c(O)c(C)c(O)c(Cc2c(O)c3c(c(C(=O)/C=C/c4ccccc4)c2O)OC(C)(C)C=C3)c1O	–	13.1 µM	–	15.8 µM	–	11.6 µM	–	14.3 µM	–	34.3 µM	–	6.08 µM	–	> 100 µM	–	15.1 µM	–	26.2 µM	–	22.4 µM
CC(CO)Nc1cc(-c2[nH]c3cccnc3c2-c2ccc(F)cc2)ccn1 (stereo not given)	9.77 µM	> 25 µM	16.8 µM	> 25 µM	> 25 µM	> 25 µM	10.4 µM	> 25 µM	3.99 µM	> 25 µM	2.74 µM	> 25 µM	16.8 µM	> 25 µM	15 µM	> 25 µM	> 25 µM	> 25 µM	22.8 µM	> 25 µM
CCc1c2c(nc3ccc(OCc4ccc(B(O)O)cc4)cc13)-c1cc3c(c(=O)n1C2)COC(=O)[C@]3(O)CC	0.286 µM	> 37.7 µM	0.172 µM	4.46 µM	< 0.01 µM	7.53 µM	0.353 µM	> 43 µM	< 0.0179 µM	0.589 µM	0.0366 µM	4.36 µM	0.752 µM	> 100 µM	< 0.01 µM	0.347 µM	0.0353 µM	> 100 µM	0.253 µM	–
N#C[Se]Cc1cc(-c2ccccc2)n(-c2ccc(S(N)(=O)=O)cc2)n1	1.46 µM	3.36 µM	1.18 µM	2.98 µM	0.444 µM	2.48 µM	2.05 µM	5.55 µM	1.98 µM	4.22 µM	2.1 µM	4.61 µM	0.637 µM	5.21 µM	2.69 µM	5.26 µM	0.939 µM	3.87 µM	1.86 µM	3.97 µM
O=C(Nc1cccc(Cl)c1)Nn1cnnc1	> 50 µM	> 100 µM	> 50 µM	> 100 µM	> 50 µM	> 100 µM	> 50 µM	> 100 µM	> 50 µM	> 100 µM	12.7 µM	50 µM and > 100 µM	> 50 µM	> 100 µM	> 50 µM	> 100 µM	> 50 µM	> 100 µM	> 50 µM	> 50 µM and 22.5 µM
CC1CC(C)CC(C)C(O)/C(C#N)=C/C=C/CC(C2CCCC2C(=O)O)OC(=O)CC(O)C(C)C1 (stereo not given)	0.0644 µM and 0.0286 µM	0.574 µM and 0.321 µM	0.0358 µM and 0.0178 µM	0.199 µM and 0.0879 µM	–	0.203 µM and 0.222 µM	0.0229 µM	0.114 µM and 0.104 µM	0.0326 µM	0.148 µM and 0.181 µM	–	0.0513 µM and 0.0143 µM	0.0395 µM	0.223 µM and 0.0673 µM	0.0369 µM	0.217 µM and 0.0917 µM	0.0166 µM	0.0499 µM and 0.161 µM	0.023 µM	0.282 µM and < 0.0365 µM
CO/N=C(\COc1ccc2c(c1)[nH]c1ccccc12)c1ccc(OC)cc1	4.36 µM	> 100 µM	32.9 µM	> 100 µM	13.6 µM	99.2 µM	> 100 µM	> 100 µM	18.8 µM	> 100 µM	11.9 µM	> 100 µM	18.9 µM	> 100 µM	34.6 µM	> 100 µM	62.2 µM	> 100 µM	61 µM	> 100 µM
CC1=C2C(=C[C@@](C)(CO)[C@@H]2OC(=O)N(C)CCN(C)C(=O)OC(C)(C)C)C(=O)[C@](C)(O)C12CC2	2.32 µM	> 50 µM	2.31 µM	21 µM	1.8 µM	33.1 µM	3.98 µM	> 50 µM	2.6 µM	32.6 µM	8.08 µM	25.1 µM	15.3 µM	> 50 µM	6.93 µM	23 µM	2.3 µM	46.4 µM	2.67 µM	> 50 µM
COc1ccc(C2=Nn3c(nnc3-c3cc(Cl)cc(Cl)c3Cl)SC2)cc1	0.336 µM	–	0.173 µM	0.772 µM	0.0576 µM	1.4 µM	0.52 µM	> 100 µM	0.859 µM	> 100 µM	> 33.9 µM	> 100 µM	0.376 µM	13.6 µM	0.522 µM	> 100 µM	0.461 µM	2.03 µM	1.42 µM	> 100 µM
CCCN1C(=O)NC(=O)C(CC)(N2C(=O)c3c(F)c(F)c(F)c(F)c3C2=O)C1=O (stereo not given)	1.4 µM	3.62 µM	1.69 µM	3.16 µM	3.93 µM	14.6 µM	1.85 µM	6.82 µM	1.9 µM	3.69 µM	1.68 µM	3.37 µM	2.3 µM	6.94 µM	3.96 µM	13.2 µM	1.97 µM	4.33 µM	2.04 µM	4.11 µM
c1ccc(NN(Cc2cnccn2)c2ccccc2)cc1	–	> 100 µM	–	> 100 µM	–	> 100 µM	–	> 100 µM	–	> 100 µM	–	89.7 µM	–	> 100 µM	–	> 100 µM	–	> 100 µM	–	> 100 µM
Oc1cccc(Nc2nc3ccccc3c3occc23)c1	–	–	2.09 µM	12.9 µM	2.34 µM	11.7 µM	15 µM	33.8 µM	7.69 µM	21.4 µM	9.07 µM	21.3 µM	13.9 µM	31.4 µM	11.7 µM	23.9 µM	5.22 µM	61.7 µM	12.7 µM	25.3 µM
O=c1oc2ccccc2c2c1Sc1ccccc1N2	–	> 100 µM	–	> 100 µM	–	> 100 µM	–	> 100 µM	–	> 100 µM	–	> 100 µM	–	> 100 µM	–	–	–	> 100 µM	–	> 100 µM
CN(C)c1cc2ccccc2oc1=O	–	> 100 µM	–	> 100 µM	–	> 100 µM	–	> 100 µM	–	> 100 µM	–	> 100 µM	–	> 100 µM	–	–	–	> 100 µM	–	> 100 µM
COc1cccc(-c2nc3cc(NC(=O)c4ccc(Cl)c(C#N)c4)ccc3o2)c1	–	–	–	–	11.7 µM	> 100 µM	> 100 µM	> 100 µM	–	–	3.01 µM	8.56 µM	8.89 µM	> 100 µM	2.57 µM	5.56 µM	> 100 µM	> 100 µM	3.05 µM	> 100 µM
